The experiment concerns the target CDK4/Cyclin D1 (Homo sapiens (Human), UniProt P11802). In words: CDK4/Cyclin D1 biochemical assay (TR-FRET). The settings on record: 1 mM ATP, 0.15 μM Rb (Ser780)-biotin substrate. (In general: TR-FRET usually uses a lanthanide donor and a delayed reading to cut background.)
CDK4/Cyclin D1, sequence (P11802 whole entry): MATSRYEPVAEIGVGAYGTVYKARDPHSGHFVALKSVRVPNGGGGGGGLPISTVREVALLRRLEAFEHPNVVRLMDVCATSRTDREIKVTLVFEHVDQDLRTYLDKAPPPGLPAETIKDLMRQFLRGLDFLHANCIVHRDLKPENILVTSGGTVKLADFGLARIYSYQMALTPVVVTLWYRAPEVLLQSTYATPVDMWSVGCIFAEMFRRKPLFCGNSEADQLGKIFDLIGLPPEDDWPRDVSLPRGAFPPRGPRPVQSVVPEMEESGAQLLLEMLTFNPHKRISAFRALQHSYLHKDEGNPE
CDK4/Cyclin D1, sequence (P24385 whole entry partner): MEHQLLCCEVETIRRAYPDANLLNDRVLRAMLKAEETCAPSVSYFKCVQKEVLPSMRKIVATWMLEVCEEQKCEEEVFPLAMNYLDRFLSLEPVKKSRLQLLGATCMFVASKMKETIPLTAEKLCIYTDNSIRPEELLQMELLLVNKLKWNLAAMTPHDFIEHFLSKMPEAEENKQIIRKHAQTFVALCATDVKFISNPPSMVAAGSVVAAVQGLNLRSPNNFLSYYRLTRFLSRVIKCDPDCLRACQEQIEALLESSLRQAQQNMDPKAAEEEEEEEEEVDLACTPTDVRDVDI
On to `CN(C)C(=O)c1cc2cnc(N[C@@H]3CCOC[C@H]3O)nc2n1C1CCCC1` [Example 1, 7-cyclopentyl-2-(((3S,4R)-3-hydroxytetrahydro-2H-pyran-4-yl)amino)-N,N-dimethyl-7H-pyrrolo[2,3-d]pyrimidine-6-carboxamide], for which half-maximal inhibition (IC50) required 68 nM.
Take `CC(=O)c1c(C)c2cnc(N[C@@H]3CCOC[C@H]3O)nc2n(C2CCCC2)c1=O` [Example 2 in WO2020212865, reference compound]: the IC50 (usually the concentration needed to halve the response being measured) was 8.8 nM. This IC50 lies about 7.7-fold lower than the previous one.
Under `Cc1ccc(-n2c(C(=O)N(C)C)cc3cnc(N[C@@H]4CCOC[C@H]4O)nc32)cc1` [Example 2, 2-(((3S,4R)-3-hydroxytetrahydro-2H-pyran-4-yl)amino)-N,N-dimethyl-7-(p-tolyl)-7H-pyrrolo[2,3-d]pyrimidine-6-carboxamide] stands 360 nM; under `CN(C)Cc1ccc(-n2c(C(=O)N(C)C)cc3cnc(N[C@@H]4CCOC[C@H]4O)nc32)cc1` [Example 3, 7-(4-((dimethylamino)methyl)phenyl)-2-(((3S,4R)-3-hydroxytetrahydro-2H-pyran-4-yl)amino)-N,N-dimethyl-7H-pyrrolo[2,3-d]pyrimidine-6-carboxamide], 72 nM; under `CN(C)Cc1ccc(-n2c(C(=O)N(C)C)cc3cnc(N[C@@H]4CCOC[C@H]4O)nc32)cc1C1CC1` [Example 4, 7-(3-cyclopropyl-4-((dimethylamino)methyl)phenyl)-2-(((3S,4R)-3-hydroxytetrahydro-2H-pyran-4-yl)amino)-N,N-dimethyl-7H-pyrrolo[2,3-d]pyrimidine-6-carboxamide], 9.7 nM.
Under `CN(C)Cc1ccc(-n2c(C(=O)N(C)C)cc3cnc(N[C@@H]4CCOC[C@H]4O)nc32)cc1F` [Example 5, 7-(4-((dimethylamino)methyl)-3-fluorophenyl)-2-(((3S,4R)-3-hydroxytetrahydro-2H-pyran-4-yl)amino)-N,N-dimethyl-7H-pyrrolo[2,3-d]pyrimidine-6-carboxamide] stands 51 nM; under `CN(C)Cc1ccc(-n2c(C(=O)N(C)C)cc3cnc(N[C@@H]4CCOC[C@H]4O)nc32)cc1Cl` [Example 6, 7-(3-chloro-4-((dimethylamino)methyl)phenyl)-2-(((3S,4R)-3-hydroxytetrahydro-2H-pyran-4-yl)amino)-N,N-dimethyl-7H-pyrrolo[2,3-d]pyrimidine-6-carboxamide], 22 nM; under `CN(C)Cc1ccc(-n2c(C(=O)N(C)C)cc3cnc(N[C@@H]4CCOC[C@H]4O)nc32)cc1C(F)(F)F` [Example 7, 7-(4-((dimethylamino)methyl)-3-(trifluoromethyl)phenyl)-2-(((3S,4R)-3-hydroxytetrahydro-2H-pyran-4-yl)amino)-N,N-dimethyl-7H-pyrrolo[2,3-d]pyrimidine-6-carboxamide], 5.9 nM.
Under `CN1CCc2cc(-n3c(C(=O)N(C)C)cc4cnc(N[C@@H]5CCOC[C@H]5O)nc43)ccc2C1` [Example 8, 2-(((3S,4R)-3-hydroxytetrahydro-2H-pyran-4-yl)amino)-N,N-dimethyl-7-(2-methyl-1,2,3,4-tetrahydroisoquinolin-6-yl)-7H-pyrrolo[2,3-d]pyrimidine-6-carboxamide] stands 143 nM; under `CN(C)C(=O)c1cc2cnc(N[C@@H]3CCOC[C@H]3O)nc2n1-c1ccc2c(c1)CCCC2N(C)C` (stereo partly drawn) [Example 9, 7-(5-(dimethylamino)-5,6,7,8-tetrahydronaphthalen-2-yl)-2-(((3S,4R)-3-hydroxytetrahydro-2H-pyran-4-yl)amino)-N,N-dimethyl-7H-pyrrolo[2,3-d]pyrimidine-6-carboxamide], 12 nM.
In the case of `CN(C)C(=O)c1cc2cnc(N[C@@H]3CCOC[C@H]3O)nc2n1-c1ccc2c(c1)C1(CCC2N(C)C)CC1` (stereo partly drawn) [Example 10, 7-(4′-(dimethylamino)-3′,4′-dihydro-2′H-spiro[cyclopropane-1,1′-naphthalen]-7′-yl)-2-(((3S,4R)-3-hydroxytetrahydro-2H-pyran-4-yl)amino)-N,N-dimethyl-7H-pyrrolo[2,3-d]pyrimidine-6-carboxamide], the IC50 was determined as 13 nM.
Under `CN(C)C(=O)c1cc2cnc(N[C@@H]3CCOC[C@H]3O)nc2n1-c1ccc2c(c1)C(F)(F)CCC2N(C)C` (stereo partly drawn) [Example 11, 7-(5-(dimethylamino)-8,8-difluoro-5,6,7,8-tetrahydronaphthalen-2-yl)-2-(((3S,4R)-3-hydroxytetrahydro-2H-pyran-4-yl)amino)-N,N-dimethyl-7H-pyrrolo[2,3-d]pyrimidine-6-carboxamide] stands 2.1 nM; under `CN(C)C(=O)c1cc2cnc(N[C@@H]3CCOC[C@H]3O)nc2n1-c1ccc2c(c1)CCC2N(C)C` (stereo partly drawn) [Example 12, 7-(1-(dimethylamino)-2,3-dihydro-1H-inden-5-yl)-2-(((3S,4R)-3-hydroxytetrahydro-2H-pyran-4-yl)amino)-N,N-dimethyl-7H-pyrrolo[2,3-d]pyrimidine-6-carboxamide], 42 nM; under `CN(C)C(=O)c1cc2cnc(N[C@@H]3CCOC[C@H]3O)nc2n1-c1ccc2c(c1)C1(CC1)CC2N(C)C` (stereo partly drawn) [Example 13, 7-(3′-(dimethylamino)-2′,3′-dihydrospiro[cyclopropane-1,1′-inden]-6′-yl)-2-(((3S,4R)-3-hydroxytetrahydro-2H-pyran-4-yl)amino)-N,N-dimethyl-7H-pyrrolo[2,3-d]pyrimidine-6-carboxamide], 38 nM.
Under `CC(C)n1c(C(C)(C)O)nc2c(F)cc(-c3nc(N[C@@H]4CCOC[C@H]4O)ncc3Cl)cc21` [Example A94 in WO2019207463, reference compound] stands 5 nM.

Source of the values: patent US20250066372A1, “HETEROCYCLIC COMPOUNDS, COMPOSITIONS THEREOF, AND METHODS OF TREATMENT THEREWITH” (BeiGene, Ltd., priority 2022, published 2025).
